According to ChEMBL document CHEMBL3044763, “Inhibitory Activities of Rhodanine Derivatives on Plant Growth” (Biosci Biotechnol Biochem, 1996):

Tests used:
[1] = system: Brassica rapa subsp. oleifera; assay: Growth inhibition of Brassica rapa subsp. oleifera assessed as chlorophyll b level at 3 x 10^-4 M after 7 days; type: functional; set-up: scale not given: the % may be the effect or the level left
[2] = system: Brassica rapa subsp. oleifera; assay: Growth inhibition of Brassica rapa subsp. oleifera assessed as chlorophyll b level at 1 x 10^-4 M after 7 days; type: functional; set-up: scale not given: the % may be the effect or the level left
[3] = system: Brassica rapa subsp. oleifera; assay: Growth inhibition of Brassica rapa subsp. oleifera assessed as chlorophyll a level at 3 x 10^-5 M after 7 days; type: functional; set-up: scale not given: the % may be the effect or the level left
[4] = system: Brassica rapa subsp. oleifera; assay: Growth inhibition of Brassica rapa subsp. oleifera assessed as chlorophyll a level at 5 x 10^-5 M after 7 days; type: functional; set-up: scale not given: the % may be the effect or the level left
[5] = Toxicity in Mus musculus ddY (mouse) assessed as mortality at 300 mg/kg, ip after 4 days; type: organism-based; set-up: dose 300 mg/kg, route intraperitoneal; details: in vivo
[6] = Toxicity in Mus musculus ddY (mouse) assessed as mortality at 275 mg/kg, ip after 4 days; type: organism-based; set-up: dose 275 mg/kg, route intraperitoneal; details: in vivo
[7] = Toxicity in Mus musculus ddY (mouse) assessed as mortality at 350 mg/kg, ip after 4 days; type: organism-based; set-up: dose 350 mg/kg, route intraperitoneal; details: in vivo
[8] = Toxicity in Mus musculus ddY (mouse) assessed as mortality at 325 mg/kg, ip after 4 days; type: organism-based; set-up: dose 325 mg/kg, route intraperitoneal; details: in vivo
[9] = Toxicity in ip dosed Mus musculus ddY (mouse) assessed as mortality after 1 to 7 days; type: organism-based; details: in vivo
[10] = system: Brassica rapa subsp. oleifera; assay: Growth inhibition of Brassica rapa subsp. oleifera assessed as total chlorophyll level at 5 x 10^-5 M after 7 days; type: functional; set-up: scale not given: the % may be the effect or the level left
[11] = system: Brassica rapa subsp. oleifera; assay: Growth inhibition of Brassica rapa subsp. oleifera assessed as total chlorophyll level at 3 x 10^-5 M after 7 days; type: functional; set-up: scale not given: the % may be the effect or the level left
[12] = system: Brassica rapa subsp. oleifera; assay: Growth inhibition of Brassica rapa subsp. oleifera assessed as total chlorophyll level at 1 x 10^-4 M after 7 days; type: functional; set-up: scale not given: the % may be the effect or the level left
[13] = system: Brassica rapa subsp. oleifera; assay: Growth inhibition of Brassica rapa subsp. oleifera assessed as total chlorophyll level at 3 x 10^-4 M after 7 days; type: functional; set-up: scale not given: the % may be the effect or the level left
[14] = system: Brassica rapa subsp. oleifera; assay: Growth inhibition of Brassica rapa subsp. oleifera assessed as root growth at 3 x 10^-5 M after 7 days; type: functional
[15] = system: Brassica rapa subsp. oleifera; assay: Growth inhibition of Brassica rapa subsp. oleifera assessed as root growth at 5 x 10^-5 M after 7 days; type: functional
[16] = system: Brassica rapa subsp. oleifera; assay: Growth inhibition of Brassica rapa subsp. oleifera assessed as root growth at 1 x 10^-4 M after 7 days; type: functional
[17] = system: Brassica rapa subsp. oleifera; assay: Growth inhibition of Brassica rapa subsp. oleifera assessed as root growth at 3 x 10^-4 M after 7 days; type: functional
[18] = Toxicity in Mus musculus ddY (mouse) assessed as mortality at 400 mg/kg, ip after 4 days; type: organism-based; set-up: dose 400 mg/kg, route intraperitoneal; details: in vivo
[19] = Toxicity in Mus musculus ddY (mouse) assessed as mortality at 375 mg/kg, ip after 4 days; type: organism-based; set-up: dose 375 mg/kg, route intraperitoneal; details: in vivo
[20] = Toxicity in Mus musculus ddY (mouse) assessed as mortality at 375 mg/kg, ip after 3 days; type: organism-based; set-up: dose 375 mg/kg, route intraperitoneal; details: in vivo
[21] = Toxicity in Mus musculus ddY (mouse) assessed as mortality at 350 mg/kg, ip after 3 days; type: organism-based; set-up: dose 350 mg/kg, route intraperitoneal; details: in vivo
[22] = Toxicity in Mus musculus ddY (mouse) assessed as mortality at 400 mg/kg, ip after 3 days; type: organism-based; set-up: dose 400 mg/kg, route intraperitoneal; details: in vivo
[23] = Toxicity in Mus musculus ddY (mouse) assessed as mortality at 300 mg/kg, ip after 3 days; type: organism-based; set-up: dose 300 mg/kg, route intraperitoneal; details: in vivo
[24] = Toxicity in Mus musculus ddY (mouse) assessed as mortality at 275 mg/kg, ip after 3 days; type: organism-based; set-up: dose 275 mg/kg, route intraperitoneal; details: in vivo
[25] = Toxicity in Mus musculus ddY (mouse) assessed as mortality at 325 mg/kg, ip after 3 days; type: organism-based; set-up: dose 325 mg/kg, route intraperitoneal; details: in vivo
[26] = Toxicity in Mus musculus ddY (mouse) assessed as mortality at 300 mg/kg, ip after 2 days; type: organism-based; set-up: dose 300 mg/kg, route intraperitoneal; details: in vivo
[27] = Toxicity in Mus musculus ddY (mouse) assessed as mortality at 275 mg/kg, ip after 2 days; type: organism-based; set-up: dose 275 mg/kg, route intraperitoneal; details: in vivo
[28] = Toxicity in Mus musculus ddY (mouse) assessed as mortality at 350 mg/kg, ip after 2 days; type: organism-based; set-up: dose 350 mg/kg, route intraperitoneal; details: in vivo
[29] = Toxicity in Mus musculus ddY (mouse) assessed as mortality at 325 mg/kg, ip after 2 days; type: organism-based; set-up: dose 325 mg/kg, route intraperitoneal; details: in vivo

O=C1CSC(=S)N1 [RHODANINE]
Activity [1]: 1.44% | Activity [2]: 2.41% | Activity [3]: 14.1% | Activity [4]: 14.1% | mortality at 96 h [5]: 40% | mortality at 96 h [6]: 0% | mortality at 96 h [7]: 80% | mortality at 96 h [8]: 80% | LD50 [9]: 311 mg/kg | Activity [10]: 19.17% | Activity [11]: 19.19% | Activity [12]: 9.16% | Activity [13]: 3.52% | Root length [14]: 46 mm | Root length [15]: 42.5 mm | Activity [16]: 38.7 mm | Activity [17]: 11.3 mm | mortality at 96 h [18]: 100% | mortality at 96 h [19]: 100% | mortality at 72 h [20]: 100% | mortality at 72 h [21]: 80% | mortality at 72 h [22]: 100% | mortality at 72 h [23]: 40% | mortality at 72 h [24]: 0% | mortality at 72 h [25]: 80% | mortality at 48 h [26]: 40% | mortality at 48 h [27]: 0% | mortality at 48 h [28]: 80% | mortality at 48 h [29]: 80%
